From PubChem BioAssay (NCI)
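A five-concentration, 48-hour dose response in 96-well plates underlies each endpoint, interpolated linearly between surrounding concentrations. Abbreviation: GI50, concentration required for 50% inhibition of growth. TGI marks complete inhibition of growth.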

How the values were obtained:
Experiment in all cases: inhibition of tumour cell growth, NCI panel, 48 h
RXF 393 renal = test system: RXF 393 renal
OVCAR-3 ovarian = test system: OVCAR-3 ovarian
EKVX NSCLC = test system: EKVX NSCLC
OVCAR-5 ovarian = test system: OVCAR-5 ovarian
M14 melanoma = test system: M14 melanoma
HL-60(TB) leukemia = test system: HL-60(TB) leukemia
SK-MEL-2 melanoma = test system: SK-MEL-2 melanoma
TK-10 renal = test system: TK-10 renal
PC-3 prostate = test system: PC-3 prostate
SR leukemia = test system: SR leukemia

CN(/N=C/c1cccc2cccnc12)c1ccccc1
TGI (RXF 393 renal): > 100 µM
TGI (OVCAR-3 ovarian): 68 µM
TGI (EKVX NSCLC): > 100 µM
TGI (OVCAR-5 ovarian): > 100 µM
TGI (M14 melanoma): > 100 µM
TGI (HL-60(TB) leukemia): > 100 µM
TGI (SK-MEL-2 melanoma): > 100 µM
TGI (TK-10 renal): > 100 µM

O=C(Nc1cccc(NC(=O)Nc2cc(C(F)(F)F)ccc2Cl)c1)Nc1cc(C(F)(F)F)ccc1Cl
GI50 (PC-3 prostate): 1.4 µM
TGI (PC-3 prostate): 8.23 µM
GI50 (OVCAR-5 ovarian): 9.01 µM
TGI (OVCAR-5 ovarian): > 100 µM
GI50 (M14 melanoma): 3.53 µM
TGI (M14 melanoma): 60 µM
GI50 (SK-MEL-2 melanoma): 2.53 µM
TGI (SK-MEL-2 melanoma): 7.33 µM
GI50 (TK-10 renal): 2.57 µM
TGI (TK-10 renal): 11.5 µM

C[C@]12CCC3[C@@H](CC[C@@H]4c5nonc5CC[C@]34C)C1C/C(=N/O)C2=O (some centres undefined)
TGI (RXF 393 renal): > 100 µM
TGI (OVCAR-3 ovarian): > 100 µM
TGI (EKVX NSCLC): > 100 µM
TGI (OVCAR-5 ovarian): > 100 µM
TGI (M14 melanoma): > 100 µM
TGI (HL-60(TB) leukemia): 13.3 µM
TGI (SK-MEL-2 melanoma): 52 µM
TGI (TK-10 renal): > 100 µM

COC(=O)CCC(NC(=S)N/N=C/c1ccco1)C(=O)OC (centres undefined)
TGI (RXF 393 renal): > 100 µM
TGI (OVCAR-3 ovarian): > 100 µM
TGI (SR leukemia): > 100 µM
TGI (EKVX NSCLC): > 100 µM
TGI (OVCAR-5 ovarian): > 100 µM
TGI (M14 melanoma): > 100 µM
TGI (HL-60(TB) leukemia): > 100 µM
TGI (SK-MEL-2 melanoma): > 100 µM
TGI (TK-10 renal): > 100 µM

O=S1(=O)OCCOS(=O)(=O)C1Cc1ccccc1
TGI (RXF 393 renal): > 100 µM
TGI (OVCAR-3 ovarian): 44.9 µM
TGI (SR leukemia): > 100 µM
TGI (EKVX NSCLC): > 100 µM
TGI (OVCAR-5 ovarian): > 100 µM
TGI (HL-60(TB) leukemia): 54.5 µM
TGI (TK-10 renal): > 100 µM

CCc1cccc(C)c1NC(=O)C(=O)Cc1nc2ccccc2s1
TGI (RXF 393 renal): > 100 µM
TGI (OVCAR-3 ovarian): > 100 µM
TGI (SR leukemia): > 100 µM
TGI (EKVX NSCLC): > 100 µM
TGI (M14 melanoma): > 100 µM
TGI (HL-60(TB) leukemia): > 100 µM
TGI (SK-MEL-2 melanoma): > 100 µM
TGI (TK-10 renal): > 100 µM

COc1ccc(/C=C2\S/C(=N/Nc3nc(-c4ccccc4)cs3)NC2=O)cc1OC
TGI (RXF 393 renal): 52 µM
TGI (OVCAR-3 ovarian): 55.8 µM
TGI (EKVX NSCLC): 98.4 µM
TGI (PC-3 prostate): 52.6 µM
TGI (OVCAR-5 ovarian): > 100 µM
TGI (M14 melanoma): > 100 µM
TGI (HL-60(TB) leukemia): 22 µM
TGI (SK-MEL-2 melanoma): 47.5 µM
TGI (TK-10 renal): 59.4 µM

COc1ccc(OC)c(NC(=O)CCC/C(CC(=O)c2ccc(O)c(OC)c2)=N\Nc2ccc([N+](=O)[O-])cc2)c1
TGI (RXF 393 renal): 78.6 µM
TGI (OVCAR-3 ovarian): > 100 µM
TGI (SR leukemia): > 100 µM
TGI (EKVX NSCLC): > 100 µM
TGI (OVCAR-5 ovarian): > 100 µM
TGI (M14 melanoma): > 100 µM
TGI (HL-60(TB) leukemia): > 100 µM
TGI (SK-MEL-2 melanoma): > 100 µM
TGI (TK-10 renal): > 100 µM

COc1ccc(C(=O)C(c2ccc(OC)cc2)C2(O)C(=O)Nc3c2ccc(Cl)c3C)cc1 (centres undefined)
TGI (RXF 393 renal): > 100 µM
TGI (OVCAR-3 ovarian): > 100 µM
TGI (EKVX NSCLC): > 100 µM
TGI (OVCAR-5 ovarian): > 100 µM
TGI (M14 melanoma): > 100 µM
TGI (HL-60(TB) leukemia): > 100 µM
TGI (SK-MEL-2 melanoma): > 100 µM
TGI (TK-10 renal): > 100 µM

C1=C2/CC[C@H](Sc3ccccc3)[C@H]2C2(CCCCC/1)OCCO2
TGI (OVCAR-3 ovarian): 81.7 µM
TGI (SR leukemia): > 100 µM
TGI (EKVX NSCLC): 54.5 µM
TGI (OVCAR-5 ovarian): 79.6 µM
TGI (M14 melanoma): 93 µM
TGI (HL-60(TB) leukemia): 65.7 µM
TGI (SK-MEL-2 melanoma): 33.2 µM
TGI (TK-10 renal): > 100 µM

C/C(CC(=O)Nc1ccc(Cl)cc1)=N\NC(N)=S
TGI (RXF 393 renal): > 100 µM
TGI (OVCAR-3 ovarian): > 100 µM
TGI (EKVX NSCLC): > 100 µM
TGI (OVCAR-5 ovarian): > 100 µM
TGI (M14 melanoma): > 100 µM
TGI (HL-60(TB) leukemia): > 100 µM
TGI (SK-MEL-2 melanoma): > 100 µM
TGI (TK-10 renal): > 100 µM

Cc1ccc(N2C(=O)C3C=CC(n4[nH]c(=O)n(Cc5ccccc5)c4=O)CC3C2=O)cc1 (centres undefined)
TGI (RXF 393 renal): > 100 µM
TGI (OVCAR-3 ovarian): > 100 µM
TGI (SR leukemia): > 100 µM
TGI (EKVX NSCLC): > 100 µM
TGI (OVCAR-5 ovarian): > 100 µM
TGI (M14 melanoma): > 100 µM
TGI (HL-60(TB) leukemia): > 100 µM
TGI (SK-MEL-2 melanoma): > 100 µM
TGI (TK-10 renal): > 100 µM

CCOC(=O)NC(=O)c1cn(CCCCCCOC(=O)NCCCCCCNC(=O)OCCCCCCn2cc(C(=O)NC(=O)OCC)c(=O)[nH]c2=O)c(=O)[nH]c1=O
TGI (RXF 393 renal): > 100 µM
TGI (OVCAR-3 ovarian): > 100 µM
TGI (EKVX NSCLC): > 100 µM
TGI (M14 melanoma): > 100 µM
TGI (HL-60(TB) leukemia): > 100 µM
TGI (SK-MEL-2 melanoma): > 100 µM

Cc1cccc(C(C)C)c1NC(=O)CC1C(=O)Nc2ccccc2S1(=O)=O (centres undefined)
TGI (RXF 393 renal): 25.8 µM
TGI (OVCAR-3 ovarian): 38.5 µM
TGI (SR leukemia): 4.32 µM
TGI (EKVX NSCLC): > 53.8 µM
TGI (OVCAR-5 ovarian): > 73.1 µM
TGI (M14 melanoma): > 64.2 µM
TGI (HL-60(TB) leukemia): 28.4 µM
TGI (SK-MEL-2 melanoma): > 62 µM
TGI (TK-10 renal): 70.1 µM

CC(C)c1cccc2sc(NC(=O)C(=O)C(C#N)c3cccc4ccccc34)nc12 (centres undefined)
TGI (RXF 393 renal): 92.3 µM
TGI (OVCAR-3 ovarian): > 100 µM
TGI (SR leukemia): > 100 µM
TGI (EKVX NSCLC): 67.2 µM
TGI (M14 melanoma): > 100 µM
TGI (HL-60(TB) leukemia): > 100 µM
TGI (SK-MEL-2 melanoma): > 100 µM
TGI (TK-10 renal): > 100 µM

CC1=C(CO)C(=O)O[C@@H]([C@@H](C)[C@H]2CC[C@H]3[C@@H]4C[C@@H](O)[C@@]5(O)CC=CC(=O)[C@]5(C)[C@H]4CC[C@]23C)C1
TGI (RXF 393 renal): 68.6 µM
TGI (OVCAR-3 ovarian): > 100 µM
TGI (EKVX NSCLC): > 100 µM
TGI (PC-3 prostate): > 100 µM
TGI (OVCAR-5 ovarian): > 100 µM
TGI (M14 melanoma): > 100 µM
TGI (HL-60(TB) leukemia): > 100 µM
TGI (SK-MEL-2 melanoma): > 100 µM
TGI (TK-10 renal): > 100 µM

CCSCCCN(CCCSCC)CCCSCC
TGI (OVCAR-3 ovarian): > 100 µM
TGI (SR leukemia): > 100 µM
TGI (PC-3 prostate): > 100 µM
TGI (OVCAR-5 ovarian): > 100 µM
TGI (M14 melanoma): > 100 µM
TGI (HL-60(TB) leukemia): > 100 µM

COc1ccc(/C=N/N=C(\N)NO)c(OC)c1
TGI (RXF 393 renal): > 100 µM
TGI (OVCAR-3 ovarian): > 100 µM
TGI (EKVX NSCLC): > 100 µM
TGI (OVCAR-5 ovarian): 36.1 µM
TGI (SK-MEL-2 melanoma): > 100 µM

O=C(c1ccccc1)c1cccc(C(=O)c2ccccc2)c1
TGI (RXF 393 renal): > 100 µM
TGI (OVCAR-3 ovarian): > 100 µM
TGI (SR leukemia): > 100 µM
TGI (EKVX NSCLC): > 100 µM
TGI (M14 melanoma): > 100 µM
TGI (SK-MEL-2 melanoma): > 100 µM
TGI (TK-10 renal): > 100 µM

CCOC(=O)NC(=O)c1cn(CCN2CCN(c3ncnc4nc[nH]c34)CC2)c(=O)[nH]c1=O
TGI (RXF 393 renal): > 100 µM
TGI (OVCAR-3 ovarian): > 100 µM
TGI (SR leukemia): > 100 µM
TGI (EKVX NSCLC): > 100 µM
TGI (OVCAR-5 ovarian): > 100 µM
TGI (M14 melanoma): > 100 µM
TGI (HL-60(TB) leukemia): > 100 µM
TGI (SK-MEL-2 melanoma): > 100 µM
TGI (TK-10 renal): > 100 µM

O=C1c2ccccc2-c2c1c1ccccc1c(=O)n2CCN1CCOCC1
GI50 (RXF 393 renal): 49 µM
TGI (RXF 393 renal): > 100 µM
GI50 (OVCAR-3 ovarian): 82.2 µM
TGI (OVCAR-3 ovarian): > 100 µM
GI50 (EKVX NSCLC): 98.8 µM
TGI (EKVX NSCLC): > 100 µM
GI50 (PC-3 prostate): > 100 µM
TGI (PC-3 prostate): > 100 µM
GI50 (OVCAR-5 ovarian): > 100 µM
TGI (OVCAR-5 ovarian): > 100 µM
GI50 (SK-MEL-2 melanoma): > 100 µM
TGI (SK-MEL-2 melanoma): > 100 µM
GI50 (TK-10 renal): 84.8 µM
TGI (TK-10 renal): > 100 µM

COc1ccc(C2=NN(c3ccccc3)C[N+](c3ccc(OC)cc3)=N2)cc1
TGI (RXF 393 renal): 72.1 µM
TGI (OVCAR-3 ovarian): 46 µM
TGI (SR leukemia): > 100 µM
TGI (EKVX NSCLC): > 100 µM
TGI (OVCAR-5 ovarian): 70 µM
TGI (HL-60(TB) leukemia): > 100 µM
TGI (TK-10 renal): > 100 µM

Cc1ccc(Nc2nc(C)c(C(/C=C/c3ccc(/C=C/C(=N/NC(=O)C[n+]4ccccc4)c4sc(Nc5ccc(C)cc5[N+](=O)[O-])nc4C)cc3)=N\NC(=O)C[n+]3ccccc3)s2)c([N+](=O)[O-])c1
TGI (RXF 393 renal): > 100 µM
TGI (OVCAR-3 ovarian): > 100 µM
TGI (SR leukemia): > 100 µM
TGI (EKVX NSCLC): > 100 µM
TGI (OVCAR-5 ovarian): > 100 µM
TGI (M14 melanoma): > 100 µM
TGI (HL-60(TB) leukemia): > 100 µM
TGI (SK-MEL-2 melanoma): > 100 µM
TGI (TK-10 renal): > 100 µM

Cc1cc(Cl)ccc1NC(=O)CC/C(CC(=O)C(C)C)=N\NC(=O)C[n+]1ccccc1
TGI (RXF 393 renal): > 100 µM
TGI (OVCAR-3 ovarian): > 100 µM
TGI (SR leukemia): > 100 µM
TGI (EKVX NSCLC): > 100 µM
TGI (OVCAR-5 ovarian): > 100 µM
TGI (M14 melanoma): > 100 µM
TGI (HL-60(TB) leukemia): > 100 µM
TGI (SK-MEL-2 melanoma): > 100 µM
TGI (TK-10 renal): > 100 µM
